# Assay results taken from US11090267B2, “Rapidly degrading embolic particles with therapeutic agent release” (priority 2014, dated 2021).
# Experiment: incubation in water at 37° C., crystal form conversion (micrographs)
# Type: physicochemical
Structure (SMILES),"conversion to dihydrate crystals upon incubation in water (amorphous paclitaxel microparticles dispersed in PLGA matrix, water at 37C, FIG. 4)","conversion to dihydrate crystals upon incubation in water (as-received powder dispersed in water at 37° C., FIGS. 5 and 6)"
"CC(=O)O[C@H]1C(=O)[C@@]2(C)[C@H]([C@H](OC(=O)c3ccccc3)[C@]3(O)C[C@H](OC(=O)[C@H](O)[C@@H](NC(=O)c4ccccc4)c4ccccc4)C(C)=C1C3(C)C)[C@]1(OC(C)=O)CO[C@@H]1C[C@@H]2O [amorphous paclitaxel, paclitaxel]","coalesce within hours into large, needle-like dihydrate crystals",–
"CC(=O)O[C@H]1C(=O)[C@@]2(C)[C@H]([C@H](OC(=O)c3ccccc3)[C@]3(O)C[C@H](OC(=O)[C@H](O)[C@@H](NC(=O)c4ccccc4)c4ccccc4)C(C)=C1C3(C)C)[C@]1(OC(C)=O)CO[C@@H]1C[C@@H]2O [crystalline anhydrous paclitaxel, paclitaxel]",–,coalesce within hours to large needle-like dihydrate crystals
